In patent US6391577B1, “Rapid electrochemical assay for antibiotic and cytotoxic drug susceptibility in microorganisms” (priority 1999, dated 2002):
≈ marks a conversion by molar mass, not a printed value. Where “and” joins values, the source holds several entries; their conditions need not be identical. Identical values can stand only once.

Experiments:
[1] = test system: Clostridium sporogenes (ATCC 8075); test: Mediated chronocoulometric respiration assay (ferricyanide + DCIP, anaerobic); type: cell-based; settings: for Mediated Chronocoulometric Respiratory Activity Remaining, Percent: average of two measurements, 20 min + 20 min at 37 C under nitrogen
Description: This organism was chosen as a typical gram-positive, obligate anaerobe. Growth under anaerobic conditions was accomplished using a similar medium to that used for E. coli except that the concentrations of yeast extract and tryptone were doubled and the concentration of glucose was five-fold lower for the C. sporogenes growth. Assay conditions were the same as in Example 2, with the following exceptions. The incubation of 20 μL of the bacterial suspension with 130 μL of either the blank buffer or the chloramphenicol or lysozyme solution was done for 20 min at 37 C. Mediator solution (150 μL) containing 0.10 M ferricyanide and 10 μM 2,6-dichlorophenolindophenol (DCIP) was then added and the mixture was allowed to incubate for another 20 min at 37 C, giving final concentrations of 0.050 M ferricyanide and 5 μM DCIP, respectively. All manipulations were performed under a stream of nitrogen, to ensure the absence of oxygen, which is known to inhibit the growth of C. sporogenes. Measurement by chronocoulometry was performed in an identical manner as in Example 2.

E. coli JM105 [2] = test: Integrated current (charge) measurement after incubation with lysozyme or EDTA; type: cell-based; settings: for Charge: single measurements, charge between 60 and 120 s
Description: E. coli JM105 was grown in the same manner as in Example 1. The assay procedure used to determine the effect of lysozyme on mediated electrochemical respiration rate was as follows. […] Ferricyanide solution (270 μL) was then added so that the final ferricyanide concentration was 50 mM. These solutions were incubated at 37 C for 10 min. Each sample was then analyzed electrochemically using a Pt working electrode, Ag/AgCl reference electrode and a stainless steel auxilliary electrode, with an applied potential of +0.500 V. The current measured at the working electrode was integrated over the time between 60 and 120 seconds. These experiments were repeated to determine average values of integrated current (charge). The effect of ethylenediaminetetraacetate (EDTA) on electrochemical response was investigated in a similar manner. […] The samples were incubated 10 min at 37 C, and the electrochemical analysis was done as described above for lysozyme.

E. coli JM105 [3] = test: Chronocoulometric mediated respiration assay (ferricyanide); type: cell-based
Description: At this time, a platinum disk working electrode, Ag/AgCl reference electrode and a stainless steel auxiliary electrode are inserted, and a potential of +0.50 V is applied using a potentiostat. The measured current is integrated over time to produce a plot of total charge against time. The change in total charge is measured between 60 and 120 seconds after the potential is applied. The same procedures for E. coli growth, incubation with ferricyanide and antibiotic, and measurement were used in this Example as were used in Example 2. One antibiotic was studied for the effect of concentration, and this was chloramphenicol.

[4] = test system: Clostridium sporogenes (ATCC 8075); settings: see Bergey; cited from earlier work

With “Lysozyme: an enzyme that destroys cell walls and is used extensively in protein purification procedures” the “Mediated Chronocoulometric Respiratory Activity Remaining, Percent” value ([1]; final concentration 0.57 mg/mL) was 80%, the loss of activity ([1]; lysozyme, conditions of Example 5) was 20% and the “Charge, Average” value (E. coli JM105 [2]; lysozyme solution 1.5 mg/mL, blank 32 +/− 3) was 22 +/− 1 μC. The loss of activity (E. coli JM105 [2]; lysozyme, conditions of Example 3) was 31% and the Charge (E. coli JM105 [2]; lysozyme solution 1.5 mg/mL, 15 min at 0 C, then 10 min at 37 C with 50 mM ferricyanide) was 21.1 μC and 22.8 μC and 21.6 μC.
With `O=C(N[C@H](CO)[C@H](O)c1ccc([N+](=O)[O-])cc1)C(Cl)Cl` [Chloramphenicol] the “Mediated Chronocoulometric Respiratory Activity Remaining, Percent” value ([1]; final concentration 5.00 mM) was 24%, the IC50 (E. coli JM105 [3]; Escherichia coli, JM105, from the concentration series of Table 5) was 48 µM and the MIC (E. coli JM105 [3]; Escherichia coli, JM105, from the concentration series of Table 5, read-out: minimum inhibitory concentration) was 0.48 µM (≈ 0.155 µg/mL). The “Mediated Chronocoulometric Respiration Activity Remaining, Percent” value (E. coli JM105 [3]; chloramphenicol 0.0048 μM) was 95%, the “Mediated Chronocoulometric Respiration Activity Remaining, Percent” value (E. coli JM105 [3]; chloramphenicol 0.048 μM) was 102% and the “Mediated Chronocoulometric Respiration Activity Remaining, Percent” value (E. coli JM105 [3]; chloramphenicol 0.48 μM) was 66%. The “Mediated Chronocoulometric Respiration Activity Remaining, Percent” value (E. coli JM105 [3]; chloramphenicol 4.8 μM) was 58%, the “Mediated Chronocoulometric Respiration Activity Remaining, Percent” value (E. coli JM105 [3]; chloramphenicol 48 μM) was 52% and the “Mediated Chronocoulometric Respiration Activity Remaining, Percent” value (E. coli JM105 [3]; chloramphenicol 480 μM) was 35%. The “Mediated Chronocoulometric Respiration Activity Remaining, Percent” value (E. coli JM105 [3]; chloramphenicol 4800 μM) was 5% and the activity against growth [4] was “active against the growth of this strain of Clostridium”.
With `O=C(O)CN(CCN(CC(=O)O)CC(=O)O)CC(=O)O` [EDTA, Ethylenediaminetetraacetate] the “Charge, Average” value (E. coli JM105 [2]; 5 mM EDTA, blank 38 +/− 2) was 45 +/− 2 μC and the Charge (E. coli JM105 [2]; 5 mM EDTA in 50 mM ferricyanide, 10 min at 37 C) was 46.3 μC and 43.1 μC and 45.2 μC and 43.3 μC.
